Reference: patent US4950676A, “Amino-esters of dihydropyridines, and their use as circulatory agents for treating ischaemic heart diseases” (Bayer Aktiengesellschaft, priority 1986, dated 1990)
In brackets after ≈: the same amount, converted by molar mass.

Columns and labels:
isolated aortic ring [1] = assay: contraction of isolated rabbit aortic ring stimulated by KCl depolarization (calcium-antagonistic action); conditions: Oryctolagus cuniculus, isolated aortic ring from rabbits, read-out: IC50 a (active compound concentration at which the contraction of the aortic ring is inhibited by 50%)
Description: (§1) The specific calcium-antagonistic action of the compounds according to the invention is examined in a test on isolated rabbit vessels (aorta). In this test, contractions of the vascular muscle are caused in vitro by stimulation with KCl or by noradrenaline. KCl causes contractions due to the depolarization-dependent inwards flow of calcium ions.
(§2) These contractions are inhibited by calcium-antagonistic drugs as a function of the dose. Noradrenaline causes contractions by stimulation of the vascular alpha-receptors and the resulting release of calcium ions from the intracellular stores. The noradrenaline-induced contractions are not inhibited by specific calcium antagonists. In contrast, antagonists of the alpha-adrenoreceptors inhibit only the noradrenaline-induced contraction.
(§3) Table 1: Active compound concentration at which the contraction of the aortic ring is inhibited by 50% (IC50)
(§4) Isolated aortic ring from rabbits, stimulated
(a) by KCl depolarization or […]

isolated aortic ring [2] = assay: contraction of isolated rabbit aortic ring stimulated by noradrenaline (alpha-receptor); conditions: Oryctolagus cuniculus, isolated aortic ring from rabbits, read-out: IC50 b (active compound concentration at which the contraction of the aortic ring is inhibited by 50%)
Description: as §1, §2, §3, §4

hypertensive rats = assay: arterial blood pressure of conscious spontaneously hypertensive rats (tail cuff) after oral administration; type: in vivo, rat (spontaneously hypertensive rats of the Okamoto strain); conditions: Rattus norvegicus, peroral, read-out: ED20 (reduction in blood pressure in hypertensive rats by 20 mm Hg)
Protocol: The compounds according to the invention are also active after oral administration. The arterial blood pressure of conscious rats with hypertension of genetic origin ("spontaneously hypertensive rats" of the Okamoto strain) is measured bloodlessly with a "tail cuff" at defined intervals of time after administration of the substance. The substances to be tested are suspended in a Tylose suspension and administered intragastrally ("orally") in various doses by means of a stomach tube. The compounds according to the invention reduce the arterial blood pressure of hypertensive rats in a clinically relevant dosage (see Table 3).
Table 3: Reduction in blood pressure in hypertensive rats by 20 mm Hg (ED20)

anaesthetized cats [3] = assay: vein volume of an extremity by plethysmography with simultaneous arterial blood pressure recording in anaesthetized cats; type: in vivo, cat; conditions: Felis catus, iv; anaesthetized cats (ketamine), i.v., in comparison with the reference sodium nitroprusside; read-out: Dose giving significant increase in vein capacity
Protocol: The vein volume of an extremity is measured by plethysmography on anaesthetized cats (ketamine). The arterial blood pressure is also recorded at the same time. Calcium-antagonistic DHP derivatives known hitherto reduce the arterial blood pressure and reduce the vein volume by reflectory vein constriction.
Table 2: Significant increase in vein capacity in anaesthetized cats in comparison with the reference active substance sodium nitroprusside.

anaesthetized cats [4] = conditions: statement on known substances; in words; cited from earlier work

Compound	IC50 (isolated aortic ring [1]) [µg/mL]	IC50 (isolated aortic ring [2]) [µg/mL]	ED (20 mm Hg) (hypertensive rats) [mg/kg]	minimal effective dose (anaesthetized cats [3]) [mg/kg]	vein volume (known substances) (anaesthetized cats [4])
COc1ccc2c(c1OC)CCN1CCC(NCCOC(=O)C3=C(C)NC(C)=C(C(=O)OC(C)C)C3c3cccc([N+](=O)[O-])c3)CC21 (stereo not drawn) [Example 8, 3-Isopropyl 5-[2-(1,3,4,6,7,11b-hexahydro-8,9-dimethoxy-2H-benzo[a]quinolizin-2-yl-amino)ethyl]1,4-dihydro-2,6-dimethyl-4-(3-nitrophenyl)pyridine-3,5-dicarboxylate]	0.3 (≈ 0.462 µM)	1.6 (≈ 2.47 µM)	31.5	–	–
COc1ccc2c(c1)CCN1CCC(NCCOC(=O)C3=C(C)NC(C)=C(C(=O)OC(C)C)C3c3cccc([N+](=O)[O-])c3)CC21 (stereo not drawn) [Example 9, 3-Isopropyl 5-[2-(1,3,4,6,7,11b-hexahydro-9-methoxy-2H-benzo[a]quinolizin-2-yl)amino]ethyl 1,4-dihydro-2,6-dimethyl-4-(3-nitrophenyl)pyridine-3,5-dicarboxylate]	–	–	–	1	–
COC(=O)C1=C(C)NC(C)=C(C(=O)OCCN(C)CC2COc3ccccc3O2)C1c1cccc([N+](=O)[O-])c1 (stereo not drawn) [Example 11, 3-Methyl 5-{2-[N-(1,4-benzodioxan-2-yl-methyl)-N-methylamino]ethyl}1,4-dihydro-2,6-dimethyl-4-(3-nitrophenyl)pyridine-3,5-dicarboxylate]	0.23 (≈ 0.428 µM)	0.18 (≈ 0.335 µM)	3	0.1	–
COC(=O)C1=C(C)NC(C)=C(C(=O)OCCNCC2COc3ccccc3O2)C1c1cccc([N+](=O)[O-])c1 (stereo not drawn) [Example 13, 3-Methyl 5-[2-(1,4-benzodioxan-2-yl-methylamino)ethyl]1,4-dihydro-2,6-dimethyl-4-(3-nitrophenyl)pyridine-3,5-dicarboxylate]	0.08 (≈ 0.153 µM)	0.7 (≈ 1.34 µM)	3	–	–
COc1ccc2c(c1OC)CCN1CCC(NCCCOC(=O)C3=C(C)NC(C)=C(C(=O)OC(C)C)C3c3cccc([N+](=O)[O-])c3)CC21 (stereo not drawn) [Example 7, 3-Isopropyl 5-[3-(1,3,4,6,7,11b-hexahydro-8,9-dimethoxy-2H-benzo[a]quinolizin-2-yl-amino)propyl]1,4-dihydro-2,6-dimethyl-4-(3-nitrophenyl)pyridine-3,5-dicarboxylate]	0.5 (≈ 0.754 µM)	1.4 (≈ 2.11 µM)	31.5	–	–
CC1=C(C(=O)OCCNCC2COc3ccccc3O2)C(c2cccc([N+](=O)[O-])c2)C(C(=O)OC(C)C)=C(C)N1 (stereo not drawn) [Example 12, 3-Isopropyl 5-[2-(1,4-benzodioxan-2-yl-methylamino)ethyl]1,4-dihydro-2,6-dimethyl-4-(3-nitrophenyl)pyridine-3,5-dicarboxylate]	0.016 (≈ 0.029 µM)	0.4 (≈ 0.725 µM)	–	0.1	–
COC(=O)C1=C(C)NC(C)=C(C(=O)OCCNC2CCN3CCc4c(ccc(OC)c4OC)C3C2)C1c1cccc([N+](=O)[O-])c1 (stereo not drawn) [Example 6]	0.26 (≈ 0.419 µM)	0.36 (≈ 0.58 µM)	1	–	–
COC(=O)C1=C(C)NC(C)=C(C(=O)OCCCCCCNCCN(Cc2ccccc2)C(C)COc2ccccc2)C1c1cccc([N+](=O)[O-])c1 (stereo not drawn) [Example 1, 3-Methyl 5-{6-[2-[N-benzyl-N-(2-phenoxy-1-methylethyl)amino]ethylamino]hexyl}1,4-dihydro-2,6-dimethyl-4-(3-nitrophenyl)-pyridine-3,5-dicarboxylate]	0.23 (≈ 0.329 µM)	> 10	–	–	–
CC1=C(C(=O)OCCNCCN(Cc2ccccc2)C(C)COc2ccccc2)C(c2cccc([N+](=O)[O-])c2)C(C(=O)OC(C)C)=C(C)N1 (stereo not drawn) [Example 3, 3-Isopropyl 5-{2-[2-[N-benzyl-N-(2-phenoxy-1-methylethyl)amino]ethylamino]ethyl}1,4-dihydro-2,6-dimethyl-4-(3-nitrophenyl)pyridine-3,5-dicarboxylate]	0.23 (≈ 0.343 µM)	> 10	–	–	–
CC1=C(C(=O)OCCN(CCN(Cc2ccccc2)C(C)COc2ccccc2)CCN(Cc2ccccc2)C(C)COc2ccccc2)C(c2cccc([N+](=O)[O-])c2)C(C(=O)OC(C)C)=C(C)N1 (stereo not drawn) [Example 4, 3-Isopropyl 5-(2-[bis-[2-[N-benzyl-N-(2-phenoxy-1-methylethyl)amino]ethyl]amino]ethyl}1,4-dihydro-2,6-dimethyl-4-(3-nitrophenyl)-pyridine-3,5-dicarboxylate]	0.4 (≈ 0.426 µM)	5 (≈ 5.33 µM)	–	–	–
COC(=O)C1=C(C)NC(C)=C(C(=O)OCCCCCCN(CCN(Cc2ccccc2)C(C)COc2ccccc2)CCN(Cc2ccccc2)C(C)COc2ccccc2)C1c1cccc([N+](=O)[O-])c1 (stereo not drawn) [Example 2, 3-Methyl 5-{6-[bis-[2-[N-benzyl-N-(2-phenoxy-1-methylethyl)amino]ethyl]amino]hexyl}1,4-dihydro-2,6-dimethyl-4-(3-nitrophenyl)-pyridine-3,5-dicarboxylate]	0.9 (≈ 0.931 µM)	3 (≈ 3.1 µM)	–	–	–
Cc1ccc(N(CC2=NCCN2)c2cccc(O)c2)cc1 [phentolamine]	–	–	–	–	increase in the vein volume
COC(=O)[C@@H]1[C@H]2C[C@H]3c4[nH]c5ccccc5c4CCN3C[C@@H]2CC[C@@H]1O [yohimbine]	–	–	–	–	increase in the vein volume
